Patent US20160375031A1, “ALPHA-OXOACYL AMINO-CAPROLACTAM DERIVATIVE” (Seikagaku Corporation, priority 2013, published 2016)
Several values for one entry are separate records, joined by “and”; a condition that tells them apart may be missing. Equal entries are not always repeated. Where two headings read alike, the source gives them in different places.

Legend:
[1] = test system: male mice fed with low-calcium diet; experiment: Measurement of bone resorption inhibitory activity (decrease in serum calcium in low-calcium diet mice); assay type: in vivo; conditions: low-calcium diet 7 days, 100 mg/kg oral, 4 hours after administration, vs control group
Description: The measurement was performed by the same method as described in JP 2000-204071 A (Patent Literature 1). Specifically, male mice (23 to 25 g weight, 8 mice per group) were fed with low-calcium diet (0.1% calcium diet) for 7 days. […] The rate (%) of decrease in serum calcium was determined by comparison with the control group.
It should be noted that the data of the rate (%) of decrease in serum calcium as to comparative compounds 1 to 15 are the values shown in JP 2000-204071 A (Patent Literature 1).

Cathepsin K [2] = target: T1, Cathepsin K (Oryctolagus cuniculus, UniProt P43236)
T1 sequence (P43236 115-329): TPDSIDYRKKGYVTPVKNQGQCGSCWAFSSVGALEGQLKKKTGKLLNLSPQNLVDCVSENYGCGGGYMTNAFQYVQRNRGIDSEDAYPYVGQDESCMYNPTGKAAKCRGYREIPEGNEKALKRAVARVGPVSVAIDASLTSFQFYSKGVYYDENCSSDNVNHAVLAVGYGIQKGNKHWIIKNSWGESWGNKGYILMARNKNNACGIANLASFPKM
Description: (§1) Specifically, the decomposition of 20 μM Z-Gly-Pro-Arg-MCA by cathepsin K was measured in 100 mM potassium sodium phosphate, 1 mM EDTA, 8 mM Cysteine, pH 6.0. The reaction was performed at 37° C. for 30 minutes and then quenched by the addition of 2×10^−5 M of calpeptin. After the reaction was quenched, the intensity of fluorescence was measured at an excitation wavelength of 355 nm and a measurement wavelength of 460 nm.

CYP3A4 [3] = target: T2, CYP3A4 (Homo sapiens, UniProt P08684); experiment: biochemical
Description: (§2) A reaction mixture was prepared by mixing the compound of the present invention with midazolam as a typical substrate for CYP3A4 (see Food and Drug Administration (FDA) Guidance for Industry Drug Interaction Studies—Study Design, Data Analysis, Implications for Dosing, and Labeling Recommendations. FDA web site [online], www.fda.gov/downloads/drugs/guidancecomplianceregulatoryinformation/guidances/ucm292362.pdf), coenzyme NADPH-generating system, human hepatic microsomes, and a phosphate buffer. The reaction mixture was incubated at 37° C. for 10 minutes.
(§3) The coenzyme NADPH-generating system solution was prepared by mixing the materials shown in Table 1: the 13 mmol/L β-NADP^+ solution, the 33 mmol/L G-6-P solution, the solution of 10 U/mL G6PDH (Y) (manufactured by Oriental Yeast Co., Ltd.), and the 33 mmol/L MgCl2 solution in a ratio of 1:1:0.4:1 (v:v:v:v).
(§4) After the incubation, the reaction was quenched by the addition of an acetonitrile solution to the reaction mixture. The amount of 1′-hydroxymidazolam produced (the metabolite produced from midazolam by CYP3A4) was measured in the quenched sample with a high-performance liquid chromatography tandem mass spectrometer (LC-MS/MS). Each IC50 value for DI (direct inhibition) was determined from the amount of the produced 1′-hydroxymidazolam and the final concentration of the compound of the present invention or the comparative compound in the reaction mixture.
(§5) MBI (mechanism based inhibition) was evaluated as follows. After the reaction mixture not containing midazolam (but containing the compound of the present invention or the comparative compound, the coenzyme NADPH-generating system, the human hepatic microsomes, and the phosphate buffer) was pre-incubated at 37° C. for 30 minutes, midazolam was added to the reaction mixture. The reaction mixture was then incubated at 37° C. for 10 minutes. Subsequently, the reaction was quenched by the addition of an acetonitrile solution to the reaction mixture. The amount of 1′-hydroxymidazolam produced was measured in the quenched sample with an LC-MS/MS. As in the case of DI, each IC50 value for MBI was determined from the amount of the produced 1′-hydroxymidazolam and the final concentration of the compound of the present invention or the comparative compound in the reaction mixture.

Cathepsin K [4] = target: T1, Cathepsin K; experiment: Measurement of cathepsin K inhibitory activity (fluorescent substrate Z-Gly-Pro-Arg-MCA); conditions: for CYP/CatK: ratio of IC50 for CYP3A4 inhibitory activity (MBI) to IC50 for cathepsin K inhibitory activity
Description: as §1

[5] = test system: male mice fed with low-calcium diet; conditions: values shown in JP 2000-204071 A (Patent Literature 1); cited from earlier work
CYP3A4 [6] = target: T2, CYP3A4
Description: as §2, §3, §4, §5

[7] = read-out: CatK Inhibitory IC50, 20 μM Z-Gly-Pro-Arg-MCA, pH 6.0, 37° C., 30 minutes
[8] = read-out: CYP3A4 Inhibitory IC50 DI, DI (direct inhibition), human hepatic microsomes, midazolam, 37° C. 10 minutes
[9] = read-out: CYP3A4 Inhibitory IC50 MBI, MBI (mechanism based inhibition), 30 minutes pre-incubation with NADPH-generating system before midazolam

T2 sequence (P08684 whole entry): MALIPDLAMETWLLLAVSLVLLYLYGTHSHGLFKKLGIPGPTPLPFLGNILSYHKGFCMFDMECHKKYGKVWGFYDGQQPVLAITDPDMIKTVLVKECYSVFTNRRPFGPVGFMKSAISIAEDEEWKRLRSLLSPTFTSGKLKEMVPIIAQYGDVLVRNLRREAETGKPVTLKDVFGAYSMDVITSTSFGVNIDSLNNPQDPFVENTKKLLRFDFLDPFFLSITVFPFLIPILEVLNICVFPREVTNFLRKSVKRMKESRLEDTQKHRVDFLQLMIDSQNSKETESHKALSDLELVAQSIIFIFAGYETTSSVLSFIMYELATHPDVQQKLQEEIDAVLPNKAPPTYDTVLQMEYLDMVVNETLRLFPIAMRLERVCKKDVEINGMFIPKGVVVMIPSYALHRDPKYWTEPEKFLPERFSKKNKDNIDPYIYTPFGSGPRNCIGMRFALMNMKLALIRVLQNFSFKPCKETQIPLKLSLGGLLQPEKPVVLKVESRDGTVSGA

Compound | Rate of Decrease in Serum Ca [1] [%] | CYP/CatK (Cathepsin K [2]) | IC50 (CYP3A4 [3]) | IC50 (Cathepsin K [4]) [µM] | Rate of Decrease in Serum Ca [5] [%] | CYP/CatK (Cathepsin K [4]) | IC50 (Cathepsin K [4]; [7]) [µM] | IC50 (CYP3A4 [6]; [8]) [µM] | IC50 (CYP3A4 [6]; [9]) [µM]
CC(C)[C@H](NC(=O)C1(NC(=O)OC2CCOCC2)CCCCC1)C(=O)C(=O)N[C@H]1CCCCNC1=O [Compound 1, [1-[[[(1S)-3-[[(3S)-hexahydro-2-oxo-1H-azepin-3-yl]amino]-1-(1-methylethyl)-2,3-dioxopropyl]amino]carbonyl]cyclohexyl]carbamic acid tetrahydro-2H-pyran-4-yl ester] | 6.2 | 141739 | > 100 µM and 80 µM | 0.00056 |  |  |  |  | 
COC(=O)N1CCC(OC(=O)NC2(C(=O)N[C@H](C(=O)C(=O)N[C@H]3CCCCNC3=O)C(C)C)CCCCC2)CC1 [Compound 2, [1-[[[(1S)-3-[[(3S)-hexahydro-2-oxo-1H-azepin-3-yl]amino]-1-(1-methylethyl)-2,3-dioxopropyl]amino]carbonyl]cyclohexyl]carbamic acid 1-(methoxycarbonyl)-4-piperidinyl ester] | 5.6 | 44231 | 55.6 µM and 23 µM | 0.00052 |  |  |  |  | 
[1-[[[(1S)-3-[[(3S)-hexahydro-2-oxo-1H-azepin-3-yl]amino]-1-(1-methylethyl)-2,3-dioxopropyl]amino]carbonyl]cyclohexyl]carbamic acid 1-(methoxycarbonyl)-4-piperidinyl ester [Compound 2] |  |  |  |  | 4.71 | 122 | 0.013 | 9.31 | 1.53
[1-[[[(1S)-3-[[(3S)-hexahydro-2-oxo-1H-azepin-3-yl]amino]-1-(1-methylethyl)-2,3-dioxopropyl]amino]carbonyl]cyclohexyl]carbamic acid tetrahydro-2H-pyran-4-yl ester [Compound 1] |  |  |  |  | 5.39 | 207 | 0.016 | 11.7 | 3.36
